Assay results published in patent US20150105471A1, “PARACETAMOL FOR PARENTERAL ADMINISTRATION” (Fresenius Kabi Deutschland GmbH, priority 2009, published 2015).

Key:
[1] = buffer properties of cysteine; format: physicochemical; details: pH 5.5 to 7
Text: In a preferred embodiment, the composition according to the invention, preferably an infusion solution, contains cysteine, if appropriate additionally to mannitol.

[2] = electrical conductivity of aqueous paracetamol solutions; format: physicochemical
Procedure: The composition according to the invention, preferably an infusion solution, has an electrical conductivity of at most 200 μS cm^−1. The measurement of the electrical conductivity of aqueous solutions is known to the person skilled in the art and suitable measuring apparatuses are obtainable commercially. The electrical conductivity is preferably measured at room temperature. […]
Aqueous solutions of paracetamol and further ingredients were prepared. The electrical conductivity of the solutions was measured and the storage stability of paracetamol was determined by means of the formation of degradation products (for the formation of the dimer cf., for example, D. W. Pottert et al, J Biol Chem, 1985, […], 12174-80; W. Clegg et al., Acta Crystallographica, 1998, C54, 1881-2).

Row | Structure (SMILES) | buffer properties [1] | electrical conductivity ([2]; 10 g of paracetamol in 1000 ml of water) | electrical conductivity ([2]; 10 g of paracetamol in 1000 ml of water plus 100 mg of NaCl (0.01% by weight of NaCl))
1 | N[C@@H](CS)C(=O)O [cysteine] | no buffer properties at all | – | –
2 | CC(=O)Nc1ccc(O)cc1 [paracetamol] | – | about 4 μS/cm | about 200 μS/cm
